pIC50: −log10 of the molar value.
These compounds were tested against T1, Leukotriene A-4 hydrolase (Homo sapiens, UniProt P09960) (assay: Inhibition of peptidase activity of human recombinant LTA4H expressed in Escherichia coli BL21-AI/pRARE).
T1 sequence (P09960 whole entry): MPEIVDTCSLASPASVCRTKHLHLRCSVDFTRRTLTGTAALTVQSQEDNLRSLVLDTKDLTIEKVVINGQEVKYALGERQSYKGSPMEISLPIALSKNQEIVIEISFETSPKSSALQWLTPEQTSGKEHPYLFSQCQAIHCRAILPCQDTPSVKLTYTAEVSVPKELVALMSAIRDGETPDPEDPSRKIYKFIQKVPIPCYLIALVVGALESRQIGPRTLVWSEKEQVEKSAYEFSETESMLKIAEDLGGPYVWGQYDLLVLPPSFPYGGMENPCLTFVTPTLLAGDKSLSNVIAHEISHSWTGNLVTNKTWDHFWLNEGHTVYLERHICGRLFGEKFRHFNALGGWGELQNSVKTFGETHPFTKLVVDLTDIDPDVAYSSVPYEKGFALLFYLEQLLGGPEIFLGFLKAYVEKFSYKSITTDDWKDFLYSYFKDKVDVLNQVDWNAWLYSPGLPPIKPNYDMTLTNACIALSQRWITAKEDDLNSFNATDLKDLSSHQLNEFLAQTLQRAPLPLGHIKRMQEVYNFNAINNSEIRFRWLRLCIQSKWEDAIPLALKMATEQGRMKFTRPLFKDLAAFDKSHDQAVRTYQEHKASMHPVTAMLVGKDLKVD
Compound `c1ccc(CNc2ccc(OC[C@H]3CCCN3)cc2)cc1` has a pIC50 of 6.68. `OC(c1ccncc1)c1ccc(OCCN2CCCC2)cc1` (centres undefined) was tested, and the pIC50 was 3.69. In the case of `Oc1ccc2[nH]ccc2c1`, the pIC50 was under 3.00. With `Fc1ccc2[nH]ccc2c1` the pIC50 was under 3.00. For `CNCc1ccccc1-c1cccs1`, the pIC50 was 2.97. In the case of `O=C(O)C1CCN(CCOc2ccc3[nH]ccc3c2)CC1`, the pIC50 was 2.83. `Oc1ccc(CCc2cc(O)cc(O)c2)cc1` [DIHYDRORESVERATROL] was tested, and the pIC50 was 3.84. With `c1ccc(NCc2cccnc2)cc1` the pIC50 was 2.88. `c1cc2cc(OCCN3CCCC3)ccc2[nH]1` gave a pIC50 of 3.49.
